Test: Amount of fragrance ingredients retained on paper blotter after evaporation (ethanol extraction, GC-MS)
Type: physicochemical
Settings: Table 9
Protocol: A fragrance (hereafter fragrance TAK, the formulation of which is shown in table 1) was formulated in a typical Eau de Toilette (EdT1) or in fragrance compositions according to the invention (compositions C1 to C4), as shown in table 2. The amount of individual fragrance ingredients retained on paper substrate (blotter) after set time periods was assessed by the following method.
100µL samples of either EdT1 or compositions C1 to C4 were applied to 4.5cm long standard paper blotters with a microsyringe. Three replicate blotters were prepared for each extraction time. After the appropriate evaporation time each of the 3 blotters was transferred to a 30mL glass bottle. 3mL of ethanol and 50µL of a 1% solution of methyl decanoate in ethanol as an internal standard were added. The bottle was sealed and placed on a roller bed to extract the blotter for 1 hour. A sample of the extracting solution was transferred to a vial which was sealed and analysed by gas chromatography (GC 6890) with a Mass Spectrometer detector (MS 5973) using the method described below. The results of the three replicate measurements were averaged. At exact times the same extraction was repeated on the remaining blotters which were stored on a warm surface at 32°C open to the air to allow evaporation. The gas chromatography conditions were as given below.
• Initial Temp: 50°C • Initial Time: 2 min • Rate: 10°C /min • Final Temp: 280°C • Final Time: 5 min • Run Time: 30 min
• Column: HP-5MS 30m * 0.25mm * 0.25µm • Gas: Helium • Constant Pressure 18.55 psi
• Split mode Ratio 40:1 • Inlet Temp: 250°C
• MS 5973 • Mass range: 35 to 350 • Threshold: 100 • Mass Quad: 150°C • Mass Source: 230°C
To simplify the results the average amount of each fragrance ingredient from the 3 samples measured at time zero was set at 100% and all other measurements were then related to that value so tables 3 to 6 show decreasing amounts of fragrance ingredients as a percentage of the initial amount.
The method of example 1 was repeated using a commercial fragrance (hereafter fragrance COM1, the formulation of which is given in table 7) formulated in a typical Eau de Toilette (EdT2) or in fragrance compositions according to the invention (compositions C5 and C6), as shown in table 8.

[1] = fragrance COM1 in C5, T0 + 15 min
[2] = fragrance COM1 in C5, T0 + 480 min
[3] = fragrance COM1 in C5, T0 +1440 min
[4] = fragrance COM1 in C6, T0 + 15 min
[5] = fragrance COM1 in C6, T0 + 480 min
[6] = fragrance COM1 in C6, T0 +1440 min
[7] = fragrance COM1 in EdT2, C5 or C6, T0, set at 100% (normalisation)
[8] = fragrance COM1 in EdT2, T0 + 15 min
[9] = fragrance COM1 in EdT2, T0 + 480 min
[10] = fragrance COM1 in EdT2, T0 +1440 min

| Compound | amount of fragrance ingredient retained on blotter (percentage of the initial amount) [1] [%] | amount of fragrance ingredient retained on blotter (percentage of the initial amount) [2] [%] | amount of fragrance ingredient retained on blotter (percentage of the initial amount) [3] [%] | amount of fragrance ingredient retained on blotter (percentage of the initial amount) [4] [%] | amount of fragrance ingredient retained on blotter (percentage of the initial amount) [5] [%] | amount of fragrance ingredient retained on blotter (percentage of the initial amount) [6] [%] | amount of fragrance ingredient retained on blotter (percentage of the initial amount) [7] [%] | amount of fragrance ingredient retained on blotter (percentage of the initial amount) [8] [%] | amount of fragrance ingredient retained on blotter (percentage of the initial amount) [9] [%] | amount of fragrance ingredient retained on blotter (percentage of the initial amount) [10] [%] |
| --- | --- | --- | --- | --- | --- | --- | --- | --- | --- | --- |
| CC(C=O)Cc1ccc(C(C)C)cc1 (centres unmarked) [Cyclamen aldehyde] | 85.8 | 45.2 | 14.71 | 75.4 | 33.2 | 12.0 | 100 | 81.5 | 30.7 | 7.12 |
| CC1(C)CCC[C@]2(C)[C@H]3CCO[C@]3(C)CC[C@@H]12 [Ambroxan™, (3aR,5aS,9aS,9bR)-3a,6,6,9a-tetramethyl-2,4,5,5a,7,8,9,9b-octahydro-1H-benzo[e][1]benzofuran] | 85.4 | 68.9 | 40.11 | 75.6 | 52.6 | 29.9 | 100 | 81.5 | 56.6 | 15.42 |
| Methyl ionone gamma | 84.0 | 32.8 | 5.68 | 74.2 | 23.3 | 5.2 | 100 | 79.2 | 16.4 | 3.77 |
| CC=CC(=O)C1=C(C)CCCC1(C)C [Damascone beta] | 81.9 | 20.5 | 2.12 | 74.8 | 14.7 | 1.9 | 100 | 78.2 | 10.6 | 4.25 |
| CC(C)(C)c1ccc(CCC=O)cc1 [Bourgeonal™, 3-(4-tert-butylphenyl)propanal] | 86 | 59.8 | 28.82 | 75.6 | 43.6 | 20.9 | 100 | 81.4 | 43.9 | 13.42 |

From patent EP3375430A1, “FRAGRANCE COMPOSITIONS” (Takasago International Corporation, priority 2017, dated 2018)
